# Measurements as given in US20230102554A1 (GB002, INC., priority 2019, published 2023).
# How the values were obtained:
# [1] = target: T1, Human PDGFRα, cytoplasmic domain (GST-PDGFRα) (Homo sapiens, UniProt P16234); experiment: Human PDGFRα biochemical inhibition assay (off-chip Mobility Shift Assay)
# T1 construct: made in house
# [2] = target: T2, Human PDGFRβ, cytoplasmic domain (GST-PDGFRβ) (Homo sapiens, UniProt P09619); experiment: Human PDGFRβ biochemical inhibition assay (off-chip Mobility Shift Assay)
# T2 construct: made in house
# T2 sequence (P09619 with tags, fused parts or gaps): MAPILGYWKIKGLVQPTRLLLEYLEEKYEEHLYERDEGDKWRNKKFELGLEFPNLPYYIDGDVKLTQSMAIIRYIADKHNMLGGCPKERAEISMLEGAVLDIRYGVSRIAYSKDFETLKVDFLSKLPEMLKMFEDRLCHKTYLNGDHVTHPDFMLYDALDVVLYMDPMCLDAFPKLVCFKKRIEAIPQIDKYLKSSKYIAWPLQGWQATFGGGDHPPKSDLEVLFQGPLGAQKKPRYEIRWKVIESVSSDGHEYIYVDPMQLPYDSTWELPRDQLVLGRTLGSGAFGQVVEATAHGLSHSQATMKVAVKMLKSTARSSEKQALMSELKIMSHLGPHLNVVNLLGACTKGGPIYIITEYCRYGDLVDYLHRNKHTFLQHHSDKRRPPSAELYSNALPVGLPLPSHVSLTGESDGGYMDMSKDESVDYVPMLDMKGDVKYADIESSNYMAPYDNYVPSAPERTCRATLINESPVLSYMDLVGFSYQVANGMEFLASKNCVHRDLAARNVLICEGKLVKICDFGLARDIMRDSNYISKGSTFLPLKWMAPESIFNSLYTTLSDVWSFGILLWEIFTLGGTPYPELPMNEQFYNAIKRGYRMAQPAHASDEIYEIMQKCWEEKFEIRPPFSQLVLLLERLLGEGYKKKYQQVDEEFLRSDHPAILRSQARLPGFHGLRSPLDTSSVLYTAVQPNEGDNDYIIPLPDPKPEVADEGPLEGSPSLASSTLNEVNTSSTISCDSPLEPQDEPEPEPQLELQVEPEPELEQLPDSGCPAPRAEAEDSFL
# Summary of the method: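 GST-tagged cytoplasmic domain (aa 557-1106) from baculovirus was incubated 1 h at room temperature with compound, CSKtide, ATP at Km and Mg²⁺ in HEPES buffer, pH 7.5. Phosphorylated and unphosphorylated peptide were separated by off-chip mobility shift, and the product ratio P/(P+S) gave percent inhibition.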
# T1 sequence (P16234 550-1089 T674I): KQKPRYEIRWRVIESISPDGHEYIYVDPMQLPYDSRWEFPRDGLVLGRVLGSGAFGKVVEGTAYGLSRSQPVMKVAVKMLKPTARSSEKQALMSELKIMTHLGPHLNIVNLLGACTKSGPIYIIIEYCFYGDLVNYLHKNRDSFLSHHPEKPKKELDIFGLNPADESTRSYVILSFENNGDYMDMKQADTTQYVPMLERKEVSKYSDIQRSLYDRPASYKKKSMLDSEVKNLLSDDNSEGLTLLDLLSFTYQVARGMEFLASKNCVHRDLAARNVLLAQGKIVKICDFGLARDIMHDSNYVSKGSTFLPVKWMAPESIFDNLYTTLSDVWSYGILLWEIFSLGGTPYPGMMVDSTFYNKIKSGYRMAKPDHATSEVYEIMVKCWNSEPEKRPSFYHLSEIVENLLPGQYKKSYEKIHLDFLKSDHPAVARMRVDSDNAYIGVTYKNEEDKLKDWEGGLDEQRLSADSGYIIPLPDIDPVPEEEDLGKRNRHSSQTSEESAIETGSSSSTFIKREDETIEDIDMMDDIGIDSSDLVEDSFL
IC50 [1],IC50 [2],Compound
< 300 nM,≥ 1000 nM,"CCn1cc2ncc(N[C@@H](C)c3cccc(NC(=O)Cc4ccc(OC)c(F)c4)c3)nc2n1 [Compound 626, (S)-N-(3-(1-((2-ethyl-2H-pyrazolo[3,4-b]pyrazin-6-yl)amino)ethyl)phenyl)-2-(3-fluoro-4-methoxyphenyl) acetamide]"
< 300 nM,300 to 1000 nM,"CCn1cc2ncc(N[C@@H](C)c3cccc(NC(=O)Cc4ccc(Cl)c(F)c4)c3)nc2n1 [Compound 627, (S)-2-(4-chloro-3-fluorophenyl)-N-(3-(1-((2-ethyl-2H-pyrazolo[3,4-b]pyrazin-6-yl)amino)ethyl)phenyl)acetamide]"
< 300 nM,≥ 1000 nM,"CCn1cc2ncc(N[C@@H](C)c3cccc(NC(=O)Cc4ccc(C(F)(F)F)c(F)c4)c3)nc2n1 [Compound 628, (S)-N-(3-(1-((2-ethyl-2H-pyrazolo[3,4-b]pyrazin-6-yl)amino)ethyl)phenyl)-2-(3-fluoro-4-(trifluoromethyl)phenyl)acetamide]"
< 300 nM,≥ 1000 nM,"C[C@H](Nc1cnc2cnn(C)c2n1)c1cccc(NC(=O)Cc2cnn(C)c2)c1 [Compound 629, (S)-2-(1-methyl-1H-pyrazol-4-yl)-N-(3-(1-((1-methyl-1H-pyrazolo[3,4-b]pyrazin-6-yl)amino)ethyl)phenyl)acetamide]"
< 300 nM,300 to 1000 nM,"CCn1cc2ncc(N[C@@H](C)c3cccc(NC(=O)Cc4cccc(C(F)(F)F)c4)c3)nc2n1 [Compound 630, (S)-N-(3-(1-((2-ethyl-2H-pyrazolo[3,4-b]pyrazin-6-yl)amino)ethyl)phenyl)-2-(3-(trifluoromethyl)phenyl) acetamide]"
< 300 nM,< 300 nM,"CCn1cc2ncc(N[C@@H](C)c3cccc(NC(=O)Cc4ccc(F)c(Cl)c4)c3)nc2n1 [Compound 631, (S)-2-(3-chloro-4-fluorophenyl)-N-(3-(1-((2-ethyl-2H-pyrazolo[3,4-b]pyrazin-6-yl)amino)ethyl)phenyl)acetamide]"
< 300 nM,< 300 nM,"CCn1cc2ncc(N[C@@H](C)c3cccc(NC(=O)Cc4ccc(F)c(C)c4)c3)nc2n1 [Compound 632, (S)-N-(3-(1-((2-ethyl-2H-pyrazolo[3,4-b]pyrazin-6-yl)amino)ethyl)phenyl)-2-(4-fluoro-3-methylphenyl) acetamide]"
< 300 nM,300 to 1000 nM,"CCn1cc2ncc(N[C@@H](C)c3cccc(NC(=O)Cc4ccccc4)c3)nc2n1 [Compound 633, (S)-N-(3-(1-((2-ethyl-2H-pyrazolo[3,4-b]pyrazin-6-yl)amino)ethyl)phenyl)-2-phenylacetamide]"
< 300 nM,< 300 nM,"CCn1cc2ncc(N[C@@H](C)c3cc(NC(=O)Cc4cccc(C)c4)ccc3F)nc2n1 [Compound 634, (S)-N-(3-(1-((2-ethyl-2H-pyrazolo[3,4-b]pyrazin-6-yl)amino)ethyl)-4-fluorophenyl)-2-(m-tolyl)acetamide]"
< 300 nM,< 300 nM,"CCn1cc2ncc(N[C@@H](C)c3cc(NC(=O)Cc4cccc(Cl)c4)ccc3F)nc2n1 [Compound 635, (S)-2-(3-chlorophenyl)-N-(3-(1-((2-ethyl-2H-pyrazolo[3,4-b]pyrazin-6-yl)amino)ethyl)-4-fluorophenyl)acetamide]"
< 300 nM,< 300 nM,"CCn1cc2ncc(N[C@@H](C)c3cc(NC(=O)Cc4cccc(C(F)(F)F)c4)ccc3F)nc2n1 [Compound 636, (S)-N-(3-(1-((2-ethyl-2H-pyrazolo[3,4-b]pyrazin-6-yl)amino)ethyl)-4-fluorophenyl)-2-(3-(trifluoromethyl)phenyl) acetamide]"
< 300 nM,< 300 nM,"CCn1cc2ncc(N[C@@H](C)c3cc(NC(=O)Cc4ccccc4)ccc3F)nc2n1 [Compound 637, (S)-N-(3-(1-((2-ethyl-2H-pyrazolo[3,4-b]pyrazin-6-yl)amino)ethyl)-4-fluorophenyl)-2-phenylacetamide]"
< 300 nM,< 300 nM,"CCn1cc2ncc(N[C@@H](C)c3cccc(NC(=O)Cc4ccc(F)cc4)c3)nc2n1 [Compound 638, (S)-N-(3-(1-((2-ethyl-2H-pyrazolo[3,4-b]pyrazin-6-yl)amino)ethyl)phenyl)-2-(4-fluorophenyl)acetamide]"
< 300 nM,< 300 nM,"CCn1cc2ncc(N[C@@H](C)c3cccc(NC(=O)Cc4cc(C)cc(F)c4)c3)nc2n1 [Compound 639, (S)-N-(3-(1-((2-ethyl-2H-pyrazolo[3,4-b]pyrazin-6-yl)amino)ethyl)phenyl)-2-(3-fluoro-5-methylphenyl) acetamide]"
< 300 nM,300 to 1000 nM,"CCn1cc2ncc(N[C@@H](C)c3cccc(NC(=O)Cc4cc(F)ccc4F)c3)nc2n1 [Compound 640, (S)-2-(2,5-difluorophenyl)-N-(3-(1-((2-ethyl-2H-pyrazolo[3,4-b]pyrazin-6-yl)amino)ethyl)phenyl)acetamide]"
< 300 nM,< 300 nM,"CCn1cc2ncc(N[C@@H](C)c3cccc(NC(=O)Cc4cc(F)cc(Cl)c4)c3)nc2n1 [Compound 641, (S)-2-(3-chloro-5-fluorophenyl)-N-(3-(1-((2-ethyl-2H-pyrazolo[3,4-b]pyrazin-6-yl)amino)ethyl)phenyl)acetamide]"
< 300 nM,300 to 1000 nM,"CCn1cc2ncc(N[C@@H](C)c3cccc(NC(=O)Cc4cccc(C(F)(F)F)n4)c3)nc2n1 [Compound 642, (S)-N-(3-(1-((2-ethyl-2H-pyrazolo[3,4-b]pyrazin-6-yl)amino)ethyl)phenyl)-2-(6-(trifluoromethyl)pyridin-2-yl) acetamide]"
< 300 nM,300 to 1000 nM,"CCn1cc2ncc(N[C@@H](C)c3cccc(NC(=O)Cc4cc(F)cc(F)c4)c3)nc2n1 [Compound 643, (S)-2-(3,5-difluorophenyl)-N-(3-(1-((2-ethyl-2H-pyrazolo[3,4-b]pyrazin-6-yl)amino)ethyl)phenyl)acetamide]"
≥ 1000 nM,≥ 1000 nM,"CCn1cc2ncc(N[C@@H](C)c3cccc(NC(=O)Cc4ccncc4)c3)nc2n1 [Compound 644, (S)-N-(3-(1-((2-ethyl-2H-pyrazolo[3,4-b]pyrazin-6-yl)amino)ethyl)phenyl)-2-(pyridin-4-yl)acetamide]"
300 to 1000 nM,≥ 1000 nM,"CCn1cc2ncc(N[C@@H](C)c3cccc(NC(=O)Cc4ccccn4)c3)nc2n1 [Compound 645, (S)-N-(3-(1-((2-ethyl-2H-pyrazolo[3,4-b]pyrazin-6-yl)amino)ethyl)phenyl)-2-(pyridin-2-yl)acetamide]"
< 300 nM,300 to 1000 nM,"CCn1cc2ncc(N[C@@H](C)c3cccc(NC(=O)Cc4cc(F)cc(CN5CCN(C)CC5)c4)c3)nc2n1 [Compound 646, (S)-N-(3-(1-((2-ethyl-2H-pyrazolo[3,4-b]pyrazin-6-yl)amino)ethyl)phenyl)-2-(3-fluoro-5-((4-methylpiperazin-1-yl)methyl)phenyl)acetamide]"
< 300 nM,≥ 1000 nM,"CCn1cc2ncc(N[C@@H](C)c3cccc(NC(=O)Cc4ccc(F)cn4)c3)nc2n1 [Compound 647, (S)-N-(3-(1-((2-ethyl-2H-pyrazolo[3,4-b]pyrazin-6-yl)amino)ethyl)phenyl)-2-(5-fluoropyridin-2-yl)acetamide]"
< 300 nM,< 300 nM,"CCn1cc2ncc(N[C@@H](C)c3cccc(NC(=O)Cc4ccc(F)c(F)c4)c3)nc2n1 [Compound 648, (S)-2-(3,4-difluorophenyl)-N-(3-(1-((2-ethyl-2H-pyrazolo[3,4-b]pyrazin-6-yl)amino)ethyl)phenyl)acetamide]"
< 300 nM,300 to 1000 nM,"CCn1cc2ncc(N[C@@H](C)c3cc(NC(=O)Cc4ccc(F)cn4)ccc3F)nc2n1 [Compound 649, (S)-N-(3-(1-((2-ethyl-2H-pyrazolo[3,4-b]pyrazin-6-yl)amino)ethyl)-4-fluorophenyl)-2-(5-fluoropyridin-2-yl)acetamide]"
< 300 nM,300 to 1000 nM,"CCn1cc2ncc(N[C@@H](C)c3cc(NC(=O)Cc4ccc(Cl)cn4)ccc3F)nc2n1 [Compound 650, (S)-2-(5-chloropyridin-2-yl)-N-(3-(1-((2-ethyl-2H-pyrazolo[3,4-b]pyrazin-6-yl)amino)ethyl)-4-fluorophenyl)acetamide]"
< 300 nM,≥ 1000 nM,"CCn1cc2ncc(N[C@@H](C)c3cc(NC(=O)Cc4ccc(C)nc4)ccc3F)nc2n1 [Compound 651, (S)-N-(3-(1-((2-ethyl-2H-pyrazolo[3,4-b]pyrazin-6-yl)amino)ethyl)-4-fluorophenyl)-2-(6-methylpyridin-3-yl) acetamide]"
< 300 nM,300 to 1000 nM,"CCn1cc2ncc(N[C@@H](C)c3cc(NC(=O)Cc4cncc(C)c4)ccc3F)nc2n1 [Compound 652, (S)-N-(3-(1-((2-ethyl-2H-pyrazolo[3,4-b]pyrazin-6-yl)amino)ethyl)-4-fluorophenyl)-2-(5-methylpyridin-3-yl) acetamide]"
< 300 nM,≥ 1000 nM,"CCn1cc2ncc(N[C@@H](C)c3cc(NC(=O)Cc4cncc(F)c4)ccc3F)nc2n1 [Compound 653, (S)-N-(3-(1-((2-ethyl-2H-pyrazolo[3,4-b]pyrazin-6-yl)amino)ethyl)-4-fluorophenyl)-2-(5-fluoropyridin-3-yl)acetamide]"
< 300 nM,≥ 1000 nM,"CCn1cc2ncc(N[C@@H](C)c3cc(NC(=O)Cc4ccc(C(F)(F)F)cn4)ccc3F)nc2n1 [Compound 654, (S)-N-(3-(1-((2-ethyl-2H-pyrazolo[3,4-b]pyrazin-6-yl)amino)ethyl)-4-fluorophenyl)-2-(5-(trifluoromethyl)pyridin-2-yl) acetamide]"
< 300 nM,≥ 1000 nM,"CCn1cc2ncc(N[C@@H](C)c3cc(NC(=O)Cc4ccc(C5CC5)cn4)ccc3F)nc2n1 [Compound 655, (S)-2-(5-cyclopropylpyridin-2-yl)-N-(3-(1-((2-ethyl-2H-pyrazolo[3,4-b]pyrazin-6-yl)amino)ethyl)-4-fluorophenyl) acetamide]"
